Assay results from patent publication US12168763B2, “Microorganisms and methods for reducing bacterial contamination” (Melio Peptide Systems Inc., priority 2020, dated 2024).

Assays:
Pediococcus damnosus = test: Soft-agar overlay screen of peptide-expressing yeast, other lactic acid bacteria; format: cell-based
Lactobacillus plantarum = test: as above; format: cell-based
Lactobacillus brevis = test: as above; format: cell-based
E. faecium NCCB 86023 = test: Soft-agar overlay screen of peptide-expressing yeast (BY4742)
L. reuteri CCUG 32624 = test: as above
[1] = system: Leuconostoc mesenteroides subsp. mesenteroides; test: Soft-agar overlay screen of peptide-expressing yeast, other lactic acid bacteria; format: cell-based
[2] = system: P. pentosaceus NCCB 31016; test: Soft-agar overlay screen of peptide-expressing yeast (BY4742)
L. lactis NCCB 26066 = test: as above
[3] = system: L. delbrueckii CCUG 34222; test: as above
Lactobacillus amylovorus = test: Soft-agar overlay screen of peptide-expressing yeast, other lactic acid bacteria; format: cell-based; conditions: sometimes weak
Pediococcus acidilactici = test: as above; format: cell-based
W. confusa CCUG30113 = test: Soft-agar overlay screen of peptide-expressing yeast (BY4742)
W. confusa CCUG30943 = test: as above
[4] = system: Lactobacillus delbrueckii subsp. delbrueckii; test: Soft-agar overlay screen of peptide-expressing yeast, other lactic acid bacteria; format: cell-based
Lactobacillus casei = test: as above; format: cell-based; conditions: sometimes weak
[5] = system: Lactococcus lactis subsp. cremoris; test: as above; format: cell-based
P. pentosaceus = test: Small-scale mock ethanol fermentation contaminated with P. pentosaceus; format: cell-based, Pediococcus pentosaceus; conditions: 72 hours; contamination OD600 0.00005-0.05; virginiamycin 2 mg/L
Protocol: (§1) Small-scale mock ethanol fermentations were carried out in 2 mL microcentrifuge tubes with a venting hole in the cap made with a 30 gauge needle. Starter cultures of yeast were grown in YPD at 30° C. with agitation. Starter cultures of L. fermentum CCUG 72619 were grown in MRS at 37° C. without agitation. […] . Control fermentations contained 2 mg/L virginiamycin. The fermentations were incubated at 30° C. without agitation for 72 hours and then analyzed by HPLC.
(§2) . M2 wild-type with and without virginiamycin, M2-pPedA, M2-pPedA-K1A, M2-pPedA-K1A/T22A, and M2-pPedA-K1T were compared (FIGS. 14A-14D, 15A-15D). […] . The pediocin-expressing strains were not effective at completely preventing the lactic acid production by L. delbrueckii or P. pentosaceus. […] .

L. delbrueckii = test: Small-scale mock ethanol fermentation contaminated with L. delbrueckii; format: cell-based, Lactobacillus delbrueckii; conditions: 72 hours; contamination OD600 0.00005-0.05; virginiamycin 2 mg/L
Protocol: as §1, §2

L. fermentum CCUG 72619 = format: cell-based, Lactobacillus fermentum

Substance: Pediocin PA-1 from [Pediococcus acidilactici] (KYYGNGVTCGKHSCSVDWGKATTCIINNGAMAWATGGHQGNHKC; listed as Pediococcus acidilactici)
- Antibacterial activity against Pediococcus damnosus (Pediococcus damnosus): showed antibacterial activity
- Antibacterial activity against Lactobacillus plantarum (Lactobacillus plantarum): showed antibacterial activity
- Antibacterial activity against Lactobacillus brevis (Lactobacillus brevis): showed antibacterial activity
- Inhibition, E. faecium NCCB 86023 (E. faecium NCCB 86023): +
- Inhibition, L. reuteri CCUG 32624 (L. reuteri CCUG 32624): −
- Antibacterial activity against Leuconostoc mesenteroides subsp. mesenteroides [1]: showed antibacterial activity
- Growth inhibition zones of P. pentosaceus ([2]; FIG. 7, BY4742 with pHVXU-pedA, 30° C., 1 day): Growth inhibition zones of P. pentosaceus are observable
- Inhibition, P. pentosaceus NCCB 31016 ([2]; soft-agar overlay, peptide-expressing yeast): +
- Inhibition, L. lactis NCCB 26066 (L. lactis NCCB 26066): +
- Inhibition, L. delbrueckii CCUG 34222 [3]: +
- Antibacterial activity against Lactobacillus amylovorus (Lactobacillus amylovorus): showed some antibacterial activity
- Antibacterial activity against Pediococcus acidilactici (Pediococcus acidilactici): showed antibacterial activity
- Inhibition, W. confusa CCUG30113 (W. confusa CCUG30113): −
- Inhibition, W. confusa CCUG30943 (W. confusa CCUG30943): −
- Antibacterial activity against Lactobacillus delbrueckii subsp. delbrueckii [4]: showed antibacterial activity
- Antibacterial activity against Lactobacillus casei (Lactobacillus casei): showed some antibacterial activity
- Antibacterial activity against Lactococcus lactis subsp. cremoris [5]: showed antibacterial activity

Substance: virginiamycin
- Lactic acid production by P. pentosaceus (P. pentosaceus): effective at preventing the lactic acid production
- Lactic acid production by L. delbrueckii (L. delbrueckii): effective at preventing the lactic acid production
- Variability in residual glucose (L. fermentum CCUG 72619): tended to be reduced
